According to publication PMC4971055, “Identification and Characterization of the Corazonin Receptor and Possible Physiological Roles of the Corazonin-Signaling Pathway in Rhodnius prolixus” (Frontiers in Neuroscience, 2016):

Legend:
Rhopr-CRZR-α = experiment: bioluminescence (calcium mobilizing) functional receptor assay, Rhopr-CRZR-α in CHOK1-aeq cells; type: cell-based, Rhodnius prolixus; conditions: for bioluminescence response (receptor activation): every 5 s over 15 s
Description: (§1) The ORF of the two Rhopr-CRZR variants were amplified and a Kozak translation initiation sequence was introduced at the 5′ end using primers listed in Supplementary Table 2. The resulting product was cloned into pGEM-T Easy vector and subcloned into pIRES2-ZsGreen1 (Clontech, Mountain View, CA, USA).
(§2) Chinese hamster ovary (CHO) cells stably expressing aequorin (CHOK1-aeq) (Paluzzi et al., [2010]) were cultured in complete media (94% Dulbecco's Modified Eagle Medium Nutrient Mixture F12-Ham (DMEM/F12) (Life Technologies Corporation, Carlsbad, CA, USA), 5% heat-inactivated fetal bovine serum (FBS), and 1% penicillin/streptomycin) containing 200 μg/mL Geneticin. The cells were incubated at 37°C in 5% CO2, and then transiently transfected with the expression vector for the receptor transcript variants using X-tremeGENE 9 DNA transfection reagent (Roche Applied Science, Indianapolis, IN, USA) at a ratio of 2:1 (transfection reagent to expression vector) using the manufacturer recommended protocol. Cells were also transiently transfected with an empty expression vector as a negative control.
(§3) The bioluminescence assay was performed 72 h post-transfection. The cells were first harvested with PBS/EDTA solution and suspended in bovine serum albumin BSA media (DMEM/F12 containing 1% BSA and 1% penicillin/streptomycin). The cells were incubated in the dark for 4–5 h at room temperature with 5 μM (final concentration) coelenterazine h (Promega, Madison, WI, USA) and then diluted 10-fold using BSA media. Various peptide concentrations were prepared with BSA media and loaded in triplicates on an opaque 96-well microplate. Cells were loaded into each well using an automated injector unit and luminescence was recorded over 15 s using a Wallac Victor2 plate reader (Perkin Elmer, San Diego, CA, USA). The peptides used were Rhopr-CRZ (pQTFQYSRGWTNamide), Rhopr-AKH (pQLTFSTDWamide), and Rhopr-ACP (pQVTFSRDWNAamide). Wells containing only the BSA media served as a blank control while wells containing 25, 50, and 100 μM ATP served as positive controls. Dose-response curves were obtained by averaging three replica plates and the EC50 values were determined using Prism5 software.

Rhopr-CRZR-β = experiment: bioluminescence (calcium mobilizing) functional receptor assay, Rhopr-CRZR-β in CHOK1-aeq cells; type: cell-based, Rhodnius prolixus; conditions: for bioluminescence response (receptor activation): every 5 s over 15 s
Description: as §1, §2, §3

[1] = system: dorsal vessel of adult R. prolixus; experiment: heartbeat assay in vitro; set-up: species or system Rhodnius prolixus; conditions: 10^−8 M Rhopr-CRZ; for increase in heartbeat frequency in vitro: compared to saline, n = 5
Description: Adult R. prolixus were anesthetized briefly with CO2 and injected with 2 μL of 2 μg/μL of dsCRZR or dsARG into the thorax using a 5 μL Hamilton syringe. Insects were left for 30 min at room temperature to recover and then kept in an incubator at 28°C on a 16 h: 8 h light/dark cycle. To determine knockdown efficiency, qPCR was performed 3 days post-injection.
Adult R. prolixus injected 3 days earlier with either dsCRZR or dsARG were dissected from the ventral surface under physiological saline (150 mM NaCl, 8.6 mM KCl, 2 mM CaCl2, 4 mM NaHCO3, and 8.5 mM MgCl2, 5 mM HEPES, pH 7.0). The digestive and reproductive systems were removed to expose the dorsal vessel. Electrodes attached to an impedance converter (UFI model 2991, Morro Bay, CA, USA) were positioned on either side of the dorsal vessel between the sixth and fifth abdominal segments. The heartbeat frequency was left to stabilize in 50 μL saline and the frequency of heartbeat measured from the traces recorded on a linear Flat-bed single channel chart recorder. The saline was then exchanged for 50 μL of 10^−8 M CRZ and the heartbeat frequency was again measured. The response to 10^−8 M CRZ was quantified by measuring the increase in heartbeat frequency compared to saline control.

Periplaneta americana = system: Periplaneta americana; set-up: method as in Veenstra, [1989]; conditions: cockroach Periplaneta americana; ref Veenstra, [1989]; cited from earlier work
Manduca sexta = system: Manduca sexta; set-up: method as in Kim et al., [2004]; conditions: ref Kim et al., [2004]; cited from earlier work
Galleria mellonella = system: Galleria mellonella; set-up: method as in Hua et al., [2000]; Hansen et al., [2010]; conditions: ref Hua et al., [2000], Hansen et al., [2010]; cited from earlier work
Gryllus bimaculatus = system: Gryllus bimaculatus; set-up: method as in Hua et al., [2000]; Hansen et al., [2010]; conditions: ref Hua et al., [2000], Hansen et al., [2010]; cited from earlier work
Bombyx. mori = system: Bombyx. mori; set-up: method as in Hua et al., [2000]; Hansen et al., [2010]; conditions: ref Hua et al., [2000], Hansen et al., [2010]; cited from earlier work
5th instar R. prolixus = conditions: in vitro in 5th instar R. prolixus; ref Patel et al., [2014]; cited from earlier work
Text: The percent knockdown of Rhopr-CRZR transcript after injection of dsCRZR into adult R. prolixus was quantified by qPCR in the dorsal vessel. […] The physiological effects of this decrease in Rhopr-CRZR on heartbeat frequency was studied in vivo and in vitro in adult R. prolixus.

Substance: pQLTFSTDWamide [Rhopr-AKH, R. prolixus adipokinetic hormone, pQLTFSTDWamide, reference compound]
- bioluminescence response (receptor activation) (Rhopr-CRZR-α; Rhopr-CRZR-α, 10^−6 M, n = 3): without effect
- bioluminescence response (receptor activation) (Rhopr-CRZR-β; Rhopr-CRZR-β, 10^−6 M, n = 3): without effect

Substance: pQTFQYSRGWTNamide [Rhopr-CRZ, Rhodnius prolixus corazonin neuropeptide, p…amide]
- EC50 (Rhopr-CRZR-α; Rhopr-CRZR-α transiently expressed in CHOK1-aeq cells, coelenterazine h luminescence over 15 s, 72 h post-transfection, triplicates, three replica plates averaged): 2.7 nM
- time of maximum luminescence (Rhopr-CRZR-α; Rhopr-CRZR-α, during the first 5 s following activation, 10^−6 M, n = 3): ≤ 5 s
- EC50 (Rhopr-CRZR-β; Rhopr-CRZR-β transiently expressed in CHOK1-aeq cells, coelenterazine h luminescence over 15 s, 72 h post-transfection, triplicates, three replica plates averaged): 1 nM
- time of maximum luminescence (Rhopr-CRZR-β; Rhopr-CRZR-β, during the first 5 s following activation, 10^−6 M, n = 3): ≤ 5 s
- increase in heartbeat frequency in vitro ([1]; dsARG injected adults, vs dsCRZR unpaired t-test p = 0.0096): 7.33 ± 0.8 beats/min
- heartbeat rate in vitro (in words) ([1]; dsARG injected insects, unpaired t-test p = 0.0096): significantly increased the heartbeat rate
- increase in heartbeat frequency in vitro ([1]; dsCRZR injected adults, vs dsARG unpaired t-test p = 0.0096): 2 ± 0.9 beats/min
- heartbeat rate (Periplaneta americana): increases the heartbeat rate
- ecdysis behavior (Manduca sexta): initiate ecdysis behavior
- dark body coloration (Galleria mellonella): did not have such an effect
- dark body coloration (Gryllus bimaculatus): did not have such an effect
- dark body coloration (Bombyx. mori): did not have such an effect
- heartbeat frequency (5th instar R. prolixus): increase heartbeat frequency in a dose-dependent manner

Substance: pQVTFSRDWNAamide [Rhopr-ACP, R. prolixus AKH/CRZ-related peptide, p[…]amide, reference compound]
- bioluminescence response (receptor activation) (Rhopr-CRZR-α; Rhopr-CRZR-α, 10^−6 M, n = 3): without effect
- bioluminescence response (receptor activation) (Rhopr-CRZR-β; Rhopr-CRZR-β, 10^−6 M, n = 3): without effect
